Source: patent US12157730B2, “Heteroaryl derivative, method for producing same, and pharmaceutical composition comprising same as effective component” (VORONOI INC., priority 2019, dated 2024)

Target: T1, Ba/F3 cell EGFR Exon20 ins NPH (Homo sapiens, UniProt P00533, INS773NPH)
T1 construct: expressed in transfected cells; host or cells: Ba/F3
Assay: Ba/F3 cell proliferation suppression, EGFR Exon20 ins NPH
Assay type: cell-based
Conditions: GI50 class; Ba/F3 cell line with NPH inserted at Exon20 of EGFR; 72 hours
Outline: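 Cells (3000–5000/well) plated 24 h before compound, 12-point 3-fold dilutions at 0.3 nM to 50 um final; Ba/F3 lines grown with 5 ng/ml IL-3. Viability by CellTiter-Glo luminescence after 72 h, growth ratio vs control, GI50 from curves; triplicate.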

Row | Ba/F3 (NPH) Activity | Compound
1 | A (GI50 < 50 nM) | C=CC(=O)Nc1cc(Nc2cc(N3OCC[C@@H]3c3ccc(Cl)c(F)c3)ncn2)c(OC)cc1N1CCN(CC)CC1 [compound 798, N-(5-((6-((R)-3-(4-chloro-3-fluorophenyl)isoxazolidine-2-yl)pyrimidine-4-yl)amino)-2-(4-ethylpiperazine-1-yl)-4-methoxyphenyl) acrylamide]
2 | A (GI50 < 50 nM) | C=CC(=O)Nc1cc(Nc2cc(N3OCC[C@@H]3c3ccc(Cl)c(F)c3)ncn2)c(OC)cc1N1CCN(C2COC2)CC1 [compound 801, N-(5-((6-((R)-3-(4-chloro-3-fluorophenyl)isoxazolidine-2-yl)pyrimidine-4-yl)amino)-4-methoxy-2-(4-(oxetane-3-yl)piperazine-1-yl)phenyl)acrylamide]
3 | A (GI50 < 50 nM) | C=CC(=O)Nc1cc(Nc2cc(N3OCC[C@@H]3c3cccc(F)c3)ncn2)c(OC)cc1N1C[C@@H]2C[C@H]1CO2 [compound 832, N-(2-((1S,4S)-2-oxa-5-azabicyclo[2.2.1]heptane-5-yl)-5-((6-((R)-3-(3-fluorophenyl)isoxazolidine-2-yl)pyrimidine-4-yl)amino)-4-methoxyphenyl) acrylamide]
4 | A (GI50 < 50 nM) | C=CC(=O)Nc1cc(Nc2cc(N3OCC[C@@H]3c3cccc(F)c3Cl)ncn2)c(OC)cc1N1CCC(N2C[C@@H]3C[C@H]2CO3)CC1 [compound 640, N-(2-(4-((1S,4S)-2-oxa-5-azabicyclo[2.2.1]heptane-5-yl)piperidine-1-yl)-5-((6-((R)-3-(2-chloro-3-fluorophenyl)isoxazolidine-2-yl)pyrimidine-4-yl)amino)-4-methoxyphenyl) acrylamide]
5 | A (GI50 < 50 nM) | C=CC(=O)Nc1cc(Nc2cc(N3OCC[C@@H]3Cc3ccccc3)ncn2)c(OC)cc1N1CCC(N(C)C)CC1 [compound 951, N-(5-((6-((S)-3-benzylisoxazolidine-2-yl)pyrimidine-4-yl)amino)-2-(4-(dimethylamino)piperidine-1-yl)-4-methoxyphenyl) acrylamide]
6 | A (GI50 < 50 nM) | C=CC(=O)Nc1cc(Nc2cc(N3OCC[C@@H]3c3cccc(F)c3Cl)ncn2)c(OC)cc1N1CCC(N2CCOCC2)CC1 [compound 598, N-(5-((6-((R)-3-(2-chloro-3-fluorophenyl)isoxazolidine-2-yl)pyrimidine-4-yl)amino)-4-methoxy-2-(4-morpholinopiperidine-1-yl)phenyl)acrylamide]
7 | A (GI50 < 50 nM) | C=CC(=O)Nc1cc(Nc2cc(N3OCC[C@@H]3c3cccc(Cl)c3C)ncn2)c(OC)cc1N1CC[C@@H](N(C)C)C1 [compound 586, N-(5-((6-((R)-3-(3-chloro-2-methylphenyl)isoxazolidine-2-yl)pyrimidine-4-yl)amino)-2-((R)-3-(dimethylamino)pyrolidine-1-yl)-4-methoxyphenyl) acrylamide]
8 | A (GI50 < 50 nM) | C=CC(=O)Nc1cc(Nc2cc(N3OCC[C@@H]3c3cccc(Cl)c3Cl)ncn2)c(OC)cc1N1CCC(N2CCN(C(C)C)CC2)CC1 [compound 609, N-(5-((6-((R)-3-(2,3-dichlorophenyl)isoxazolidine-2-yl)pyrimidine-4-yl)amino)-2-(4-(4-isopropylpiperazine-1-yl)piperidine-1-yl)-4-methoxyphenyl) acrylamide]

The remaining lines, values behind:

Row | Compound | Ba/F3 (NPH) Activity
9 | C=CC(=O)Nc1cc(Nc2cc(N3OCC[C@@H]3c3cccc(Cl)c3C)ncn2)c(OC)cc1N1CCC(N2CCN(CCC)CC2)CC1 [compound 582, N-(5-((6-((R)-3-(3-chloro-2-methylphenyl)isoxazolidine-2-yl)pyrimidine-4-yl)amino)-4-methoxy-2-(4-(4-propylpiperazine-1-yl)piperidine-1-yl)phenyl) acrylamide] | A (GI50 < 50 nM)
10 | C=CC(=O)Nc1cc(Nc2cc(N3OCC[C@@H]3c3ccc(F)cc3F)ncn2)c(OC)cc1N1CCC(N2C[C@@H]3C[C@H]2CO3)CC1 [compound 381, N-(2-(4-((1S,4S)-2-oxa-5-azabicyclo[2.2.1]heptane-5-yl)piperidine-1-yl)-5-((6-((R)-3-(2,4-difluorophenyl)isoxazolidine-2-yl)pyrimidine-4-yl)amino)-4-methoxyphenyl) acrylamide] | A (GI50 < 50 nM)
11 | C=CC(=O)Nc1cc(Nc2cc(N3OCC[C@@H]3c3cccc(F)c3Cl)ncn2)c(OC)cc1N1CCC(N(C)C)CC1 [compound 553, N-(5-((6-((R)-3-(2-chloro-3-fluorophenyl)isoxazolidine-2-yl)pyrimidine-4-yl)amino)-2-(4-(dimethylamino)piperidine-1-yl)-4-methoxyphenyl) acrylamide] | A (GI50 < 50 nM)
12 | C=CC(=O)Nc1cc(Nc2cc(N3OCC[C@@H]3c3cccc(Cl)c3Cl)ncn2)c(OC)cc1N1CCN(C(C)C)CC1 [compound 475, N-(5-((6-((R)-3-(2,3-dichlorophenyl)isoxazolidine-2-yl)pyrimidine-4-yl)amino)-2-(4-isopropylpiperazine-1-yl)-4-methoxyphenyl) acrylamide] | A (GI50 < 50 nM)
13 | C=CC(=O)Nc1cc(Nc2cc(N3OCC[C@@H]3c3cc(F)cc(F)c3)ncn2)c(OC)cc1OCCC(C)(C)OC [compound 495, N-(5-((6-((R)-3-(3,5-difluorophenyl)isoxazolidine-2-yl)pyrimidine-4-yl)amino)-4-methoxy-2-(3-methoxy-3-methylbutoxy)phenyl) acrylamide] | A (GI50 < 50 nM)
14 | C=CC(=O)Nc1cc(Nc2cc(N3OCC[C@@H]3c3ccc(F)cc3F)ncn2)c(OC)cc1N1C[C@@H]2C[C@H]1CO2 [compound 324, N-(2-((1S,4S)-2-oxa-5-azabicyclo[2.2.1]heptane-5-yl)-5-((6-((R)-3-(2,4-difluorophenyl)isoxazolidine-2-yl)pyrimidine-4-yl)amino)-4-methoxyphenyl) acrylamide] | A (GI50 < 50 nM)
15 | C=CC(=O)Nc1cc(Nc2cc(N3OCC[C@@H]3c3cc(F)ccc3F)ncn2)c(OC)cc1-n1ccnc1C [compound 330, N-(5-((6-((R)-3-(2,5-difluorophenyl)isoxazolidine-2-yl)pyrimidine-4-yl)amino)-4-methoxy-2-(2-methyl-1H-imidazole-1-yl)phenyl)acrylamide] | A (GI50 < 50 nM)
16 | C=CC(=O)Nc1cc(Nc2cc(N3OCC[C@@H]3c3cccc(C(F)(F)F)c3)ncn2)c(OC)cc1N1CCC(N2CCN(C)CC2)CC1 [compound 453, N-(4-methoxy-2-(4-(4-methylpiperazine-1-yl)piperidine-1-yl)-5-((6-((R)-3-(3-(trifluoromethyl)phenyl)isoxazolidine-2-yl)pyrimidine-4-yl)amino)phenyl)acrylamide] | A (GI50 < 50 nM)
17 | C=CC(=O)Nc1cc(Nc2cc(N3OCC[C@@H]3c3cc(F)cc(F)c3)ncn2)c(O[C@H](C)C(F)(F)F)cc1N1CCC(N2CCN(C3CC3)CC2)CC1 [Example 119, N-(2-(4-(4-cyclopropylpiperazine-1-yl)piperidine-1-yl)-5-((6-((R)-3-(3,5-difluorophenyl)isoxazolidine-2-yl)pyrimidine-4-yl)amino)-4-(((R)-1,1,1-trifluoropropane-yl)oxy)phenyl)acrylamide] | A (GI50 < 50 nM)
18 | C=CC(=O)Nc1cc(Nc2cc(N3OCC[C@@H]3c3ccc(F)cc3F)ncn2)c(OC)cc1N1CC[C@@H](N(C)C)C1 [compound 376, N-(5-((6-((R)-3-(2,4-difluorophenyl)isoxazolidine-2-yl)pyrimidine-4-yl)amino)-2-((R)-3-(dimethylamino)pyrolidine-1-yl)-4-methoxyphenyl) acrylamide] | A (GI50 < 50 nM)
19 | C=CC(=O)Nc1cc(Nc2cc(N3OCC[C@@H]3c3ccc(F)c(F)c3)ncn2)c(OC)cc1N1CCC(N2CCN(CC)CC2)CC1 [compound 545, N-(5-((6-((R)-3-(3,4-difluorophenyl)isoxazolidine-2-yl)pyrimidine-4-yl)amino)-2-(4-(4-ethylpiperazine-1-yl)piperidine-1-yl)-4-methoxyphenyl) acrylamide] | A (GI50 < 50 nM)
20 | C=CC(=O)Nc1cc(Nc2cc(N3OCC[C@@H]3c3ccc(F)c(F)c3)ncn2)c(OC)cc1N1CCC(N(C)C)CC1 [compound 459, N-(5-((6-((R)-3-(3,4-difluorophenyl)isoxazolidine-2-yl)pyrimidine-4-yl)amino)-2-(4-(dimethylamino)piperidine-1-yl)-4-methoxyphenyl) acrylamide] | A (GI50 < 50 nM)
21 | C=CC(=O)Nc1cc(Nc2cc(N3OCC[C@@H]3c3ccc(F)c(F)c3)ncn2)c(OC)cc1N1CC[C@@H](N(C)C)C1 [compound 577, N-(5-((6-((R)-3-(3,4-difluorophenyl)isoxazolidine-2-yl)pyrimidine-4-yl)amino)-2-((R)-3-(dimethylamino)pyrolidine-1-yl)-4-methoxyphenyl) acrylamide] | A (GI50 < 50 nM)
22 | C=CC(=O)Nc1cc(Nc2cc(N3OCC[C@@H]3c3cc(F)ccc3F)ncn2)c(OC)cc1N1C[C@@H]2C[C@H]1CO2 [compound 329, N-(2-((1S,4S)-2-oxa-5-azabicyclo[2.2.1]heptane-5-yl)-5-((6-((R)-3-(2,5-difluorophenyl)isoxazolidine-2-yl)pyrimidine-4-yl)amino)-4-methoxyphenyl) acrylamide] | A (GI50 < 50 nM)
23 | C=CC(=O)Nc1cc(Nc2cc(N3OCC[C@@H]3c3ccc(C)nc3)ncn2)c(OC)cc1N1C[C@H]2C[C@@H]1CN2CC [Example 51, N-(2-((1R,4R)-5-ethyl-2,5-diazabicyclo [2.2.1]heptane-2-yl)-4-methoxy-5-((6-((R)-3-(6-methylpyridine-3-yl)isoxazolidine-2-yl)pyrimidine-4-yl)amino)phenyl) acrylamide] | C (500 nM ≤ GI50 < 5000 nM)
24 | C=CC(=O)Nc1cc(Nc2cc(N3OCC[C@@H]3c3cccc4ccccc34)ncn2)c(OC)cc1N(C)CCN(C)C [compound 440, N-(2-((2-(dimethylamino)ethyl) (methyl)amino)-4-methoxy-5-((6-((R)-3-(naphthalene-1-yl)isoxazolidine-2-yl)pyrimidine-4-yl)amino)phenyl)acrylamide] | A (GI50 < 50 nM)
